# Assays:
# [1] = parameters: species or system human; details: in vivo
# Description: Blood D-serine levels and D-asparagine levels correlate more strongly with glomerular filtration rate than the conventional marker of creatinine. […] In healthy persons without presence of disease, blood D-serine level is kept to within a very narrow range of about 1 to 2% of total serine, whereas its presence in urine reaches 30 to 60%. […] Moreover, in healthy persons without presence of disease, blood D-asparagine level is kept to within a very narrow range of about 0.1 to 0.6% of total asparagine, whereas its presence in urine reaches 20 to 50%.
# [2] = D-serine excretion rate monitored before and after therapeutic intervention in a systemic lupus erythematosus patient; format: in vivo, human; details: SLE patient
# Description: After obtaining written informed consent from a person admitted to Osaka University Hospital with systemic lupus erythematosus, with ethical approval from the same University, their blood and urine were periodically sampled. The values rapidly worsened, with serum creatinine increasing from a level of 0.57 mg/dL 90 days before admission to 11.68 mg/dL and urine protein concentration increasing from 0.5 g/g Cre to 4.0 g/g Cre, while blood pressure was 122/65 mmHg, HR was 64 bpm, percutaneous arterial oxygen saturation was 100% (indoor air) and body temperature was 36.5° C. Mouth ulcers, alopecia and retinal hemorrhage were also noted, but no abnormal lung sounds, heart sounds or lower extremity edema was observed. Rapidly progressive glomerulonephritis was suspected in clinical testing, with blood hemoglobin of 4.6 g/dL, normal level complement of C3: 88 mg/dL and C4: 21 mg/dL, positive anti-dsDNA antibody of 13.0 IU/mL1, and P-ANCA of 182.0 U/mL, and therefore plasma exchange (PE) sessions were continued, and kidney biopsy was performed. Crescent-shaped cells were found in 79% of the glomeruli, fibrous crescent-shaped cells were found in 13%, and the glomerular capillaries were thickened with foam and spikes, although no glomerulosclerosis was observed. […] Tubular atrophy was localized and moderate. In immunofluorescent staining, the granular glomerular capillary walls were positive overall for IgG, IgA, IgM, C3, C4 and C1q. Diagnosis was latent ANCA-related crescent-shaped glomerular nephritis, with lupus nephritis class V. Treatment was by prednisolone pulse therapy (3 days, 1 g), followed by oral prednisolone (40 mg/day), intermittent pulse intravenous cyclophosphamide therapy (500 mg/m^2) and mycophenolate mofetil (MMF, 500 mg/day). Eight series of plasma exchange was also carried out. In response to this treatment, the serum creatinine level fell to 0.72 mg/dL, but the urine protein level persisted. […] The harvested blood and urine samples were prepared in the same manner as Example 1, and the D-serine was quantified while also calculating the D-serine excretion rate.
# [3] = human, in vivo
# Description: The test protocol was approved by the ethics committee of the national research and development agency: National Institutes of Biomedical Innovation, Health and Nutrition, and written informed consent was obtained from all of the test subjects.
# [formula] • [UD-Ser represents urine D-serine level, PD-Ser represents blood D-serine level, UCre represents urine creatinine level and PCre represents blood creatinine level.]
# A retrospective study was used for primary aldosteronism (PA), myeloma kidney […], diabetic nephropathy (DM) and IgA nephropathy (IGAN), from a cohort of kidney disease patients admitted to the Department of Nephrology, Osaka University Hospital for diagnosis and/or treatment from 2016 to 2017. Since IgA nephropathy test subjects had blood pressure above the reference range, they were given an angiotensin II receptor antagonist (ARB) as an antihypertensive drug. Separately, 15 healthy volunteers were recruited as non-kidney disease subjects by the National Institutes of Biomedical Innovation, Health and Nutrition. The test protocol was approved by the ethics committee of each facility, and written informed consent was obtained from all of the patients.
# Sample preparation from human blood plasma and urine was carried out as follows: First a 20-fold volume of methanol was added to and completely mixed with the blood plasma. After centrifugation, 10 μL of supernatant obtained from the methanol homogenate was transferred to a brown tube and dried under reduced pressure. To the residue there were added 20 μL of 200 mM sodium borate buffer (pH 8.0) and 5 μL of fluorescent labeling reagent (40 mM 4-fluoro-7-nitro-2,1,3-benzooxadiazole (NBD-F) in anhydrous MeCN), and the mixture was then heated at 60° C. for 2 minutes. The reaction was suspended by addition of 75 μL of aqueous 0.1% TFA (v/v), and 2 μL of the reaction mixture was supplied to two-dimensional HPLC.
# The amino acid optical isomers were quantified using the following two-dimensional HPLC system. NBD derivatives of the amino acids were separated and eluted using a reversed-phase column (KSAA RP, 1.0 mm i.d.×400 mm; Shiseido Corp.), in the mobile phase (5 to 35% MeCN, 0 to 20% THF, 0.05% TFA). The column temperature was 45° C. and the mobile phase flow rate was 25 μL/min. The separated amino acid fraction was separated off using a multi loop valve, and optically resolved in a continuous manner with a chiral column (KSAACSP-001S, 1.5 mm i.d.×250 mm; Shiseido Corp.). The mobile phase used was a MeOH/MeCN mixed solution containing citric acid (0 to 10 mM) or formic acid (0 to 4%), according to the amino acid retention. NBD-amino acids were detected by fluorescence detection at 530 nm using excitation light of 470 nm. The NBD-amino acid retention time was identified from standard amino acid optical isomers and quantified by a calibration curve.
# The blood urine D-serine level and blood urine D-asparagine level and creatinine level were calculated by substitution into the following formulas.
# [formula] • [where • UD-Ser represents the level of D-serine in the urine, • PD-Ser represents the level of D-serine in the blood, • UCre represents the level of creatinine in the urine, and • PCre represents the level of creatinine in the blood]
# [formula] • [where • UD-Asn represents the level of D-asparagine in the urine, • PD-Asn represents the level of D-asparagine in the blood, • UCre represents the level of creatinine in the urine, and • PCre represents the level of creatinine in the blood] Evaluation and Assessment of Pathology
reabsorbed in the renal tubules [1],excreted [1],logarithm of reference values of excretion rate [3],mean logarithmic value of excretion rate [3],"reference values of excretion rate, mean with standard deviation of ±1.96 [3]",Structure (SMILES),further results
about 99%,–,–,–,–,NC(=O)C[C@H](N)C(=O)O [L-asparagine],–
about 99%,–,–,–,–,N[C@@H](CO)C(=O)O [L-serine],–
–,50-80%,3.75-4.50,4.12,42.46-89.66%,N[C@H](CO)C(=O)O [D-serine],D-serine excretion rate ([2]; after 48 hours (so in the source)): 41.7%; D-serine excretion rate ([2]; after 8 days): 0; D-serine excretion rate ([2]; after 12 days): 0; D-serine excretion rate ([2]; after 16 days): 0; D-serine excretion rate ([2]; after 22 days): 0; D-serine excretion rate ([2]; after 29 days): 58.9%; D-serine excretion rate ([2]; after 34 days): 87.6%; D-serine excretion rate ([2]; immediately after start of treatment): 0
–,50-80%,3.95-4.37,4.16,51.65-78.74%,NC(=O)C[C@@H](N)C(=O)O [D-asparagine],–

# Reference: patent publication US12480954B2, “Method for assisting evaluation of condition of kidneys, system for evaluating condition of kidneys, and program for evaluating condition of kidneys” (Kagami Inc., priority 2019, dated 2025)
